Measurements as given in US9440978B2, “Imidazolo-, oxazolo-, and thiazolopyrimidine modulators of TRPV1” (Janssen Pharmaceutica NV, priority 2007, dated 2016).
Counter-ions that a name gives are not always drawn.

Experiments:
[1] = target: T1, human TRPV1 (Homo sapiens, UniProt Q8NER1); assay: Block of capsaicin-induced Ca2+ influx, human assay (hTRPV1/HEK293, FLIPR); assay type: cell-based; conditions: HEK293 cells transfected with human TRPV1; 150 nM capsaicin challenge; mean; > value = solubility limit in assay medium
T1 construct: expressed in transfected cells; host or cells: HEK293
Protocol: (§1) HEK293 cells were transfected with human TRPV1 cloned in pcDNA3.1zeo(+) using the Effectene non-liposomal lipid based transfection kit (Qiagen) (hTRPV1/HEK293). hTRPV1/HEK293 cells were routinely grown as monolayers under selection in zeocin (200 μg/mL; Invitrogen) in Dulbecco's Modified Eagle Medium (DMEM, Gibco BRL) supplemented with 10% fetal bovine serum, and penicillin/streptomycin (50 units/mL) in 5% CO2 at 37° C. Cells were passaged frequently, every 3-5 days, to avoid overgrowth, depletion of essential medium components, or acidic medium exposure. Cells were passaged using a brief wash in 0.05% trypsin with 1 mM EDTA, followed by dissociation in divalent-free phosphate-buffered saline (Hyclone #SH30028.02). […] The assay buffer was composed of 130 mM NaCl, 2 mM KCl, 2 mM MgCl2, 10 mM HEPES, 5 mM glucose, and either 2 mM or 20 μM CaCl2. On the day of the experiment, the culture medium was replaced with 2 mM calcium assay buffer using an automated plate washer (ELx405; Biotek, VT). […] After loading the cells, the dye solution was replaced with 50 μL/well of 20 μM calcium assay buffer using the ELx405 plate washer. Test compounds (50 μL/well) were added to the plate and incubated for 30 min. Intracellular Ca^2+ levels were subsequently assayed using a Fluorometric Imaging Plate Reader (FLIPR™ instrument, Molecular Devices, CA) to simultaneously monitor Fluo-3 fluorescence in all wells (λexcitation=488 nm, λemission=540 nm) during challenge with agonist (capsaicin). The IC50 values were determined. […] The contents of the wells were mixed 3 times (40 μL mix volume) immediately after the additions were made. Concentration-dependence of block was determined by exposing each well of cells in duplicate rows of a 96-well plate to a serial dilution of test compound. The concentration series usually started at 10 μM with a three-fold serial decrement in concentration. The magnitude of the capsaicin response was determined by measuring the change in fluo3 fluorescence before and 100 seconds after the addition of the agonist. Data were analyzed using a non-linear regression program (Origin; OriginLab, MA).
(§2) IC50 values shown are the average (mean) of the results obtained. […] Compounds were tested as in the free base, trifluoroacetic acid salt, or hydrochloride salt form.

[2] = target: T2, rat TRPV1 (Rattus norvegicus, UniProt O35433); assay: Block of capsaicin-induced Ca2+ influx, rat assay (rTRPV1/HEK293, FLIPR); assay type: cell-based; conditions: HEK293 cells transfected with rat TRPV1; capsaicin challenge; mean; > value = solubility limit in assay medium; read-out: Rat IC50
T2 construct: expressed in transfected cells; host or cells: HEK293
Protocol: as §1
This assay was performed similarly to the human assay described above, but using HEK293 cells transfected with rat TRPV1 (rTRPV1/HEK293).
as §2

T1 sequence (Q8NER1 whole entry): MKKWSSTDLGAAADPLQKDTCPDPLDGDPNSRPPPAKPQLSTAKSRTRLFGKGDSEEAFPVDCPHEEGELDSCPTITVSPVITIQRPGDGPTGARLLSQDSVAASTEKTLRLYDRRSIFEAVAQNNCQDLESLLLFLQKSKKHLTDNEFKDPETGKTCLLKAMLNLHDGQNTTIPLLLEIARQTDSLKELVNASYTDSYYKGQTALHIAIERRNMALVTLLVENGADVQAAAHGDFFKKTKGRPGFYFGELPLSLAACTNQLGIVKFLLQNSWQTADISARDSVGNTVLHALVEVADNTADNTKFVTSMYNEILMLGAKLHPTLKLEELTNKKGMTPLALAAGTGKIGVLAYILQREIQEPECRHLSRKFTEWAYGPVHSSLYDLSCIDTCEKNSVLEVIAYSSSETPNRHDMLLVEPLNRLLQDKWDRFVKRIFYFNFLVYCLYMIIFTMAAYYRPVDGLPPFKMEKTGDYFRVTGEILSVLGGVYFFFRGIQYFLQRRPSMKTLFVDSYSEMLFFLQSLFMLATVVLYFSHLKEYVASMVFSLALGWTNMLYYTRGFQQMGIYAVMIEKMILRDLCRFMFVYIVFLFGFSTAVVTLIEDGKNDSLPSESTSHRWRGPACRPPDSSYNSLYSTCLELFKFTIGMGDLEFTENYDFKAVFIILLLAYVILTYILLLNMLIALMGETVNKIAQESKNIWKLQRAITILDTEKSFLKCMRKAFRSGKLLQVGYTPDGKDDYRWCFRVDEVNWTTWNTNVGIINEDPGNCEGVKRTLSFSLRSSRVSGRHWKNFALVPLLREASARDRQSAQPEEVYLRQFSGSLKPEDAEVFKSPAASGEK
T2 sequence (O35433 whole entry): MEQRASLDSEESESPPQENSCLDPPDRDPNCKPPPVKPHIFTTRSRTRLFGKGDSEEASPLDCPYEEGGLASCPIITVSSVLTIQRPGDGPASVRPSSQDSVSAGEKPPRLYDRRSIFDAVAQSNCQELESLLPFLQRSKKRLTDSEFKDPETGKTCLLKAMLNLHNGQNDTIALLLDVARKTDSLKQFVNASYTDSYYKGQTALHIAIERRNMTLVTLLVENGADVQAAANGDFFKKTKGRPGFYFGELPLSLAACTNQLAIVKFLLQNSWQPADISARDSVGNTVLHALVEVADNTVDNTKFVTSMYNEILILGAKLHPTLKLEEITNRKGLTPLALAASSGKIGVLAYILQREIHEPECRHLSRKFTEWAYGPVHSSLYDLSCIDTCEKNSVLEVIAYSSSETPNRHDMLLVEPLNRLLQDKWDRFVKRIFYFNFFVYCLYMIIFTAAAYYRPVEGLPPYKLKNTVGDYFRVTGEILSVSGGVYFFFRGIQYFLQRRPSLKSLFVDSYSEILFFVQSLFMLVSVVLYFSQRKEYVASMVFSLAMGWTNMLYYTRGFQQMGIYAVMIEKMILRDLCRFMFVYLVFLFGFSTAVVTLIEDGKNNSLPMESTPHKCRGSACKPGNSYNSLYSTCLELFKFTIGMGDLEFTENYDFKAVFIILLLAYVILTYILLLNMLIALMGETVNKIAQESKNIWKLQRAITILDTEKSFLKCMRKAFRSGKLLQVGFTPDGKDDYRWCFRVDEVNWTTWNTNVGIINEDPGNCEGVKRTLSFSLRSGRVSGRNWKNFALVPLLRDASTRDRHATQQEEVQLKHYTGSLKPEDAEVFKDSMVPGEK

SMILES | IC50 [1] [µM] | IC50 [2] [µM]
FC(F)(F)c1cnc(Nc2ncnc3sc(Cc4c(Cl)cccc4Cl)nc23)cn1 [Example 93, [2-(2,6-Dichloro-benzyl)-thiazolo[5,4-d]pyrimidin-7-yl]-(5-trifluoromethyl-pyrazin-2-yl)-amine] | 0.276 | 0.231
FC(F)(F)c1ccc(Nc2ncnc3sc(Cc4ccc(Cl)cc4)nc23)cc1 [Example 35, 2-(4-Chlorobenzyl)-N-[4-(trifluoromethyl)phenyl][1,3]thiazolo[5,4-d]pyrimidin-7-amine] | 0.988 | 0.042
NC(=O)c1ccc(-c2ccccc2Cc2nc3c(Nc4ccc(C(F)(F)F)cc4)ncnc3s2)cc1 [Example 107, 2′-[7-(4-Trifluoromethylphenylamino)-thiazolo[5,4-d]pyrimidin-2-ylmethyl]-biphenyl-4-carboxylic acid amide] | 6.96 | 1.53
CC(C)CN(CC(C)C)c1nc(Nc2ccc(C(F)(F)F)cc2)c2nc(Cc3c(Cl)cccc3Cl)sc2n1 [Example 80, 2-(2,6-Dichloro-benzyl)-N^5,N^5-diisobutyl-N^7-(4-trifluoromethyl-phenyl)-thiazolo[5,4-d]pyrimidine-5,7-diamine] | 4.65 | 4.04
FC(F)(F)c1ccc(Nc2nc(NCC3CCNCC3)nc3sc(Cc4c(Cl)cccc4Cl)nc23)cc1 [Example 92, 2-(2,6-Dichlorobenzyl)-N^5-(piperidin-4-ylmethyl)-N^7-[4-(trifluoromethyl)phenyl][1,3]thiazolo[5,4-d]pyrimidine-5,7-diamine hydrochloride salt] | 4.72 | 4.33
Oc1ccccc1-c1ccccc1Cc1nc2c(Nc3ccc(C(F)(F)F)cc3)ncnc2s1 [Example 106, 2′-[7-(4-Trifluoromethylphenylamino)-thiazolo[5,4-d]pyrimidin-2-ylmethyl]-biphenyl-2-ol] | 1.01 | 0.343
CS(=O)(=O)c1ccc(Nc2ncnc3sc(Cc4ccccc4Cl)nc23)cc1 [Example 22, 2-(2-Chlorobenzyl)-N-[4-(methylsulfonyl)phenyl][1,3]thiazolo[5,4-d]pyrimidin-7-amine] | 0.28 | 0.033
FC(F)(F)c1ccc(Nc2nc(NCc3ccccn3)nc3sc(Cc4c(Cl)cccc4Cl)nc23)cc1 [Example 84, 2-(2,6-Dichloro-benzyl)-N^5-pyridin-2-ylmethyl-N^7-(4-trifluoromethyl-phenyl)-thiazolo[5,4-d]pyrimidine-5,7-diamine trifluoroacetic acid salt] | 0.263 | 0.038
Clc1cccc(Cl)c1Cc1nc2c(Nc3ccccc3)ncnc2s1 [Example 43, 2-(2,6-Dichlorobenzyl)-N-phenyl[1,3]thiazolo[5,4-d]pyrimidin-7-amine] | 0.269 | 0.167
Cc1cccc(C)c1Cc1nc2c(Nc3ccc(S(C)(=O)=O)cc3)ncnc2s1 [Example 61, 2-(2,6-Dimethylbenzyl)-N-[4-(methylsulfonyl)phenyl][1,3]thiazolo[5,4-d]pyrimidin-7-amine] | 0.496 | 0.253
CS(=O)(=O)c1ccc(Nc2ncnc3sc(Cc4ccccc4)nc23)cc1 [Example 34, 2-Benzyl-N-[4-(methylsulfonyl)phenyl][1,3]thiazolo[5,4-d]pyrimidin-7-amine] | 3.31 | 1.46
Cc1cccc(C)c1Cc1nc2c(Nc3ccc(C(C)(C)C)cc3)ncnc2s1 [Example 57, N-(4-tert-Butylphenyl)-2-(2,6-dimethylbenzyl)[1,3]thiazolo[5,4-d]pyrimidin-7-amine] | 0.252 | 0.051
FC(F)(F)c1cccc(Nc2ncnc3sc(Cc4c(Cl)cccc4Cl)nc23)c1 [Example 24, 2-(2,6-Dichlorobenzyl)-N-[3-(trifluoromethyl)phenyl][1,3]thiazolo[5,4-d]pyrimidin-7-amine] | 0.84 | 0.196
FC(F)(F)c1ccc(Nc2nc(N3CCN(C4CCCC4)CC3)nc3sc(Cc4c(Cl)cccc4Cl)nc23)cc1 [Example 76, [5-(4-Cyclopentyl-piperazin-1-yl)-2-(2,6-dichloro-benzyl)-thiazolo[5,4-d]pyrimidin-7-yl]-(4-trifluoromethyl-phenyl)-amine trifluoroacetic acid salt] | 0.31 | 0.074
FC(F)(F)c1ccccc1Cc1nc2c(Nc3ccccc3)ncnc2s1 [Example 48, N-Phenyl-2-[2-(trifluoromethyl)benzyl][1,3]thiazolo[5,4-d]pyrimidin-7-amine] | 0.852 | 0.41
FC(F)(F)c1ccc(Nc2nc(NC3CC3)nc3sc(Cc4c(Cl)cccc4Cl)nc23)cc1 [Example 78, N^5-Cyclopropyl-2-(2,6-dichloro-benzyl)-N^7-(4-trifluoromethyl-phenyl)-thiazolo[5,4-d]pyrimidine-5,7-diamine] | 0.316 | 0.215
FC(F)(F)c1ccc(Nc2ncnc3sc(Cc4ccccc4-c4ccccc4)nc23)cc1 [Example 105, (2-Biphenyl-2-ylmethylthiazolo[5,4-d]pyrimidin-7-yl)-(4-trifluoromethylphenyl)-amine] | 1.64 | 1.23

Stronger by IC50 [1], values ahead:

IC50 [1] [µM] | IC50 [2] [µM] | SMILES
0.04 | 0.074 | FC(F)(F)c1ccc(Nc2ncnc3sc(Cc4c(Cl)cccc4Cl)nc23)cc1Cl [Example 9, (3-Chloro-4-trifluoromethyl-phenyl)-[2-(2,6-dichloro-benzyl)-thiazolo[5,4-d]pyrimidin-7-yl]-amine]
0.147 | 0.146 | Cc1ccccc1Cc1nc2c(Nc3ccc(C(F)(F)F)cc3)ncnc2s1 [Example 17, 2-(2-Methylbenzyl)-N-[4-(trifluoromethyl)phenyl][1,3]thiazolo[5,4-d]pyrimidin-7-amine]
0.033 | 0.054 | O=S(=O)(c1ccc(Nc2ncnc3sc(Cc4c(Cl)cccc4Cl)nc23)cc1)N1CCOCC1 [Example 15, [2-(2,6-Dichloro-benzyl)-thiazolo[5,4-d]pyrimidin-7-yl]-[4-(morpholine-4-sulfonyl)-phenyl]-amine]
0.099 | 0.056 | CC(C)(C#N)c1ccc(Nc2ncnc3sc(Cc4c(Cl)cccc4Cl)nc23)cc1 [Example 42, 2-(4-{[2-(2,6-Dichlorobenzyl)[1,3]thiazolo[5,4-d]pyrimidin-7-yl]amino}phenyl)-2-methylpropanenitrile]
0.207 | 0.034 | COc1nc(Nc2ccc(C(F)(F)F)cc2)c2nc(Cc3c(Cl)cccc3Cl)sc2n1 [Example 101, [2-(2,6-Dichloro-benzyl)-5-methoxy-thiazolo[5,4-d]pyrimidin-7-yl]-(4-trifluoromethyl-phenyl)-amine]
0.188 | 0.074 | CC(C)Oc1nc(Nc2ccc(C(F)(F)F)cc2)c2nc(Cc3c(Cl)cccc3Cl)sc2n1 [Example 102, [2-(2,6-Dichloro-benzyl)-5-isopropoxy-thiazolo[5,4-d]pyrimidin-7-yl]-(4-trifluoromethyl-phenyl)-amine]
0.136 | 0.058 | FC(F)(F)c1ccc(Nc2ncnc3oc(Cc4c(Cl)cccc4Cl)nc23)cc1 [Example 1, [2-(2,6-Dichloro-benzyl)-oxazolo[5,4-d]pyrimidin-7-yl]-(4-trifluoromethyl-phenyl)-amine]
0.104 | 0.032 | FC(F)(F)c1ccc(Nc2nc(NC3CCC3)nc3sc(Cc4c(Cl)cccc4Cl)nc23)cc1 [Example 79, N^5-Cyclobutyl-2-(2,6-dichloro-benzyl)-N^7-(4-trifluoromethyl-phenyl)-thiazolo[5,4-d]pyrimidine-5,7-diamine]
0.19 | 0.057 | CS(=O)(=O)c1ccc(Nc2ncnc3sc(Cc4c(Cl)cccc4Cl)nc23)cc1 [Example 13, [2-(2,6-Dichloro-benzyl)-thiazolo[5,4-d]pyrimidin-7-yl]-(4-methanesulfonyl-phenyl)-amine]
0.048 | 0.03 | FC(F)(F)c1ccc(Nc2ncnc3sc(Cc4c(Cl)cccc4Cl)nc23)cc1 [Example 3, [2-(2,6-Dichloro-benzyl)-thiazolo[5,4-d]pyrimidin-7-yl]-(4-trifluoromethyl-phenyl)-amine]
0.085 | 0.154 | Cc1ccccc1Cc1nc2c(Nc3ccc(C(F)(F)F)nc3)ncnc2s1 [Example 18, 2-(2-Methylbenzyl)-N-[6-(trifluoromethyl)pyridin-3-yl][1,3]thiazolo[5,4-d]pyrimidin-7-amine]
